For 18 compounds, EC50 results are on record in patent publication US20100249068A1, “S[…] NUCLEOTIDE ANALOGS” (Alios BioPharma, Inc., priority 2009, published 2010).

The test system of the first assay is stably HCV RNA-replicating cell line, AVA5 (genotype 1b, subgenomic replicon). Description: HCV replicon assay (intracellular HCV RNA levels by blot hybridization, normalized to β-actin RNA). Type of assay: cell-based. To be noted: Hepatitis C virus; AVA5 cells, HCV genotype 1b subgenomic replicon; compounds added daily for three days; HCV RNA assessed 72 hours after treatment; read-out: Activity (EC50). How it is done: Antiviral activity of test compounds was assessed (Okuse, et al., Antivir. Res. 2005 65:23) in the stably HCV RNA-replicating cell line, AVA5 (genotype 1b, subgenomic replicon, Blight, et al., Sci. 2000 290:1972). Compounds were added to dividing cultures daily for three days. […] Intracellular HCV RNA levels and cytotoxicity were assessed 72 hours after treatment.
Quadruplicate cultures for HCV RNA levels and cytoxicity (on 96-well plates) were used. A total of 12 untreated control cultures, and triplicate cultures treated with α-interferon (concentrations of: 10 IU/mL, 3.3 IU/mL, 1.1 IU/mL and 0.37 IU/mL) and 2′C-Me-C (concentrations of: 30 μM, 10 μM, 3.3 μM and 1.1 μM) served as assay controls.
Intracellular HCV RNA levels were measured using a conventional blot hybridization method, in which HCV RNA levels are normalized to the levels of β-actin RNA in each individual culture (Okuse, et al., Antivir. Res. 2005 65:23). Cytotoxicity was measured using an established neutral red dye uptake assay (Korba and Gerin, Antivir. Res. 1992 19:55; Okuse, et al., Antivir. Res. 2005 65:23). HCV RNA levels in the treated cultures are expressed as a percentage of the mean levels of RNA detected in untreated cultures. The absorbance of the internalized dye at […] (A510) was used for quantitative analysis.
Compounds were dissolved in 100% tissue culture grade DMSO (Sigma, Inc.) at 10 mM. Aliquots of test compounds sufficient for one daily treatment were made in individual tubes and all material was stored at −20° C. For the test, the compounds were suspended into culture medium at room temperature, and immediately added to the cell cultures. Compounds were analyzed separately in two groups with separate assay controls. The concentrations of the test compounds were run at concentrations of 10 μM, 3.3 μM, 1.1 μM and 0.37 μM. CC50, EC50 and EC90 were determined using the concentration response curve.
For orientation: In antiviral work, replicon cells carry a viral genome segment that copies itself.
As a reminder, the EC50 is the concentration giving half of the maximal effect. As for `C[C@H](O)[C@H]1O[C@@H](n2ccc(N)nc2=O)C(F)(F)[C@@H]1O`, the EC50 is less than 5 µM. Same read-out and setting: with `CC(=O)O[C@@H](C)[C@H]1O[C@@H](n2ccc(N)nc2=O)C(F)(F)[C@@H]1O` the figure was less than 5 µM.

As to `CC(=O)Nc1ccn([C@@H]2O[C@H]([C@H](C)OC(C)=O)[C@@H](OC(C)=O)C2(F)F)c(=O)n1`, the EC50 is less than 5 µM.

For the compound `CCC(=O)O[C@@H](C)[C@H]1O[C@@H](n2ccc(N)nc2=O)C(F)(F)[C@@H]1O`, the 50% effective concentration (EC50) was less than 5 µM.

For `CC(O)[C@H]1O[C@@H](n2ccc(N)nc2=O)[C@@H](F)[C@@H]1O` (stereo partly drawn), the EC50 is less than 30 µM. As to `CC(=O)O[C@@H](C)[C@H]1O[C@@H](n2ccc(N)nc2=O)C(F)(F)[C@@H]1OC(C)=O`, the EC50 was less than 5 µM.

As to `COC(=O)[C@@H](C)N[P@](=O)(Oc1ccccc1)O[C@H](C)[C@H]1O[C@@H](n2cnc3c(N)ncnc32)[C@H](O)[C@@H]1O`, the EC50 was less than 5 µM.

Regarding `C[C@@H](O)[C@H]1O[C@@H](n2ccc(N)nc2=O)[C@@H](O)[C@@H]1O`, the EC50 is less than 5 µM.

With `CC(OC(=O)c1ccccc1)[C@H]1O[C@@H](N2C=CC(N)NC2=O)[C@](C)(OC(=O)c2ccccc2)[C@@H]1OC(=O)c1ccccc1` (stereo partly drawn), the EC50 was less than 30 µM. On the same count and under the same terms, to `C[C@H](O)[C@H]1O[C@@H](n2ccc(N)nc2=O)[C@H](F)[C@@H]1O` belongs less than 30 µM; to `C[C@@H](O)[C@H]1O[C@@H](n2ccc3c(N)ncnc32)[C@H](O)[C@@H]1O`, less than 30 µM; to `CC(O)[C@H]1O[C@@H](n2cnc3c(=O)[nH]c(N)nc32)[C@H](O)[C@@H]1O` (stereo partly drawn), less than 200 µM. On the same count and under the same terms, with `CCC(=O)O[C@@H](C)[C@H]1O[C@@H](n2ccc(N)nc2=O)C(F)(F)[C@@H]1OC(=O)CC` the figure was less than 5 µM; with `C[C@H](O)[C@H]1O[C@@H](n2ccc(N)nc2=O)[C@@H](O)[C@@H]1O`, less than 200 µM; with `C[C@@H](O)[C@H]1O[C@@H](n2cnc3c(N)ncnc32)[C@](C)(O)[C@@H]1O`, less than 30 µM. On the same count and under the same terms, with `C[C@@H](O)[C@H]1O[C@@H](n2ccc(N)nc2=O)C(F)(F)[C@@H]1O` the figure was less than 5 µM.

Staying with this assay, now noted: Hepatitis C virus; AVA5 cells, HCV genotype 1b subgenomic replicon; compounds added daily for three days; HCV RNA assessed 72 hours after treatment; read-out: EC50.
Turning to `CO[C@@H]1[C@H](O)[C@@H](CO)O[C@H]1n1ccc(N)nc1=O` [Compound 8a, 2′-O-methylcytidine, reference compound], the EC50 lay in the range of 1 to 10 µM. On the same count and under the same terms, to `C[C@H](O)C1O[C@@H](n2cnc3c(N)ncnc32)[C@](C)(O)[C@@H]1O` (stereo in doubt) [Compound 9, 2′,5′-C-dimethyladenosine] belongs 1 to 10 µM.
